The record followed here is US20200345728A1, “COMPOSITIONS AND METHODS FOR TREATMENT OF ATHEROSCLEROSIS” (NovMetaPharma Co., Ltd., priority 2019, published 2020).

Series [1] is described as follows: DPPH colorimetric anti-oxidant assay. It counts as biochemical. The following applies: incubation with DPPH, various concentrations. From the text:
In this colorimetric assay, DPPH functions as a free radical that can be inactivated by anti-oxidant compounds resulting in loss of color. […] Zinc was not tested alone since it was not completely soluble in the organic solvents needed for the assay. Ascorbic Acid functions as an antioxidant positive control.
On the technique in general: DPPH is a stable violet radical that fades when it is reduced.

Series [2] deals with RAW264.7 macrophage cells. The series is described as follows: Charcoal phagocytosis assay in activated RAW264.7 macrophage cells. It counts as cell-based. The following applies: during M1 activation (1 μg/ml LPS/20 ng/ml IFN); 50 μM CHP, 10 μM Zn. As for the experimental part: RAW264.7 macrophage cells (ATCC® TIB-71) were activated to either inflammatory M1 macrophage phenotype (with 1 μg/ml LPS/20 ng/ml IFN) or to the anti-inflammatory M2 phenotype (with 20 ng/ml IL-4) in the presence or absence of Cyclo-Z (50 μM CHP/10 μM Zn) treatment. Charcoal dust was added to the culture as a marker of M1 phagocytosis activity.
To compare between CHP and Zinc effects in Cyclo-Z on charcoal binding activities, we determined the phagocytosis activity of CHP (50 μM CHP) or Zinc (10 μM Zn) alone or Cyclo-Z during activation of M1 macrophages (with 1 μg/ml LPS/20 ng/ml IFN).

Series [3] concerns RAW264.7 macrophage cells. The series is described as follows: FACS analysis of cell viability in M2 activated RAW264.7 cultures. It counts as cell-based. As for the experimental part: RAW264.7 macrophage cells, untreated and treated with IL-4 (20 ng/ml), were stained with 1:1000 diluted viability stain (BD Horizon Fixable Viability Stain 660). Cells were analyzed by FACS and gated for unstained (viable) and stained (non-viable) populations.
(In general: Flow cytometry measures light scatter and fluorescence of single cells or particles in a stream.)

Series [4] relates to VSMCs. The series is described as follows: Cell viability in VSMCs analyzed by FACS (viability stain). It counts as cell-based. The following applies: 45 minutes. The method, then: (§1) VSMC were seeded (1.25×10^5 cells/well in 12-well plates) and incubated at 37° C. for 24 hr. Cultures were then subjected to various treatments (as shown in Table 1) to induce ROS for 45 minutes (at 37° C.) along with 10 μM CM-H2CFDA (Molecular Probes, Inc., Eugene, Oreg.). CM-H2DCFDA is a chloromethyl derivative of H2DCFDA, useful as an indicator for ROS in cells. Subsequent oxidation of CM-H2CFDA yields a fluorescent adduct that is trapped inside the cell. At the end of treatment period cells were trypsinized, washed, and analyzed by FACS for ROS (CM-H2CFDA fluorescence) and viability using a viability stain (BD Horizon Fixable Viability Stain 660; BD Biosciences, San Jose, Calif.).

In series [5] the test system is ROS in VSMCs. The series is described as follows: ROS generation in VSMCs analyzed by FACS (CM-H2CFDA fluorescence). The following applies: 45 minutes. It counts as cell-based. The method, then:
as §1

The test system of series [6] is mouse spleen cells (B-cell activation). The experiment in a line: B-cell activation in mouse spleen cells. It counts as cell-based. Conditions: alone, 4 days; LPS 1 μg/ml; Cyclo-Z 50 μM CHP/10 μM Zn. The method, then:
Mouse spleen cells were isolated from wild type C57BL/6J mice (The Jackson Laboratory; strain 000632) and plated under standard cell culture conditions in the presence or absence of Cyclo-Z (50 μM CHP/10 μM zinc) and/or LPS for 4 days. Nodules indicating increased B-cell activation and proliferation were visualized by microscopy.

Setting [7] is: added with IL-4 (20 ng/ml), M2 activated.

For the compound `O=C1N[C@@H](Cc2cnc[nH]2)C(=O)N2CCC[C@@H]12` [CHP, cyclo-Hispro], the “anti-oxidant activity (DPPH)” value in series [1] is “concentration dependent anti-oxidant activity”. For the same compound, the “charcoal uptake (phagocytosis activity)” value in series [2] was “did not show any effects”. Besides, in series [3] (setting [7]), the “Percent Non-Viability” value was found to be 14.13% and the “Percent Viability (Stained)” value was 73.63%.
On to `OO` [H2O2, hydrogen peroxide], for which the “Viability Population” value in series [4] (H2O2 (5 μL) alone) was determined as 22.31; in series [4] (H2O2 (10 μL) alone) it was 7.33. Also, the “ROS Population” value was determined as 81.33 in series [5] (H2O2 (5 μL) alone) and 50.63 in series [5] (H2O2 (10 μL) alone).
Regarding `OC[C@H]1OC(O)[C@H](O)[C@@H](O)[C@@H]1O` (stereo partly shown) [HG], the entries for the “Viability Population” value in series [4] (HG (50 mM) alone) and in series [4] (HG (100 mM) alone) were 61.63 and 63.9, respectively. The “ROS Population” value in series [5] (HG (50 mM) alone) and in series [5] (HG (100 mM) alone) was 0.04 throughout.
Regarding `[Cl-].[Cl-].[Zn+2]` [Zinc, ZnCl2], the “charcoal uptake (phagocytosis activity)” value in series [2] was “somewhat effective”. In addition, in series [3] (setting [7]), the “Percent Non-Viability” value is on record as 33.49% and the “Percent Viability (Stained)” value is listed as 58.47%.
On to “IL-4: Interleukin-4, cytokine used to activate macrophages to M2 phenotype”, for which the “Percent Non-Viability” value in series [3] (IL-4 (20 ng/ml) alone) was found to be 17.63%.
Take lipopolysaccharide [LPS]: the “Viability Population” value in series [4] (LPS alone) turned out to be 75.81. The “ROS Population” value in series [5] (LPS alone) came to 0.09. In series [6], the “B-cell activation/proliferation (nodules)” value was “induced some B-cell activation/proliferation”.
